The values below come from patent EP3789378A1, “PIPERIDINES OR PIPERIDONES SUBSTITUTED WITH UREA AND HETEROARYL” (Grünenthal GmbH, priority 2019, dated 2021).

The structures appear in SMILES notation.

This assay has as its target T1, h FPR2 (Homo sapiens, UniProt P25090).
T1 construct: expressed in transfected cells
T1 sequence (P25090 1-351): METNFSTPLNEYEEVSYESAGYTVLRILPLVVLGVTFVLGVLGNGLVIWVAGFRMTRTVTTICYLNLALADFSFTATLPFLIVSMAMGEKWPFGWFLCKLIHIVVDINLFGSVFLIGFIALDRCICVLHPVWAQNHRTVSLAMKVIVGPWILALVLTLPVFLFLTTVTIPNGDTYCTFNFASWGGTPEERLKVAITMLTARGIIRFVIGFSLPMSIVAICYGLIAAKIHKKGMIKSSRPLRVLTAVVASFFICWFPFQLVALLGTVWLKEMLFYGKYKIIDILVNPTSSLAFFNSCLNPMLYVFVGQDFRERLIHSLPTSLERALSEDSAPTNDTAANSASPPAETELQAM
Description: Agonistic activity in hFPR2-Aq-CHO cells (FLIPR Calcium 5 fluorescence assay). It is filed as cell-based. To be noted: 11 point half log dilution, final assay concentration from 10µM. The method, boiled down: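 EC50 reflects the compound-evoked rise in Calcium 5 fluorescence over basal, recorded for 5 min on FLIPR and compared with no-compound wells. Dye-loaded hFPR2-Aq-CHO cells received half-log dilutions from 10 µM to 100 pM final in pH 7.4 HBSS buffer.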
A word on the EC50: it is the concentration needed to bring the measured effect to its halfway point. On to `COc1ccc([C@@H]2CN(Cc3ccn(S(C)(=O)=O)n3)CC[C@H]2NC(=O)Nc2ccc(Cl)cc2)nc1` (single isomer, unassigned) [Ex-42, trans-1-(4-chlorophenyl)-3-[1-[(1-methanesulfonyl-1H-pyrazol-3-yl)methyl]-3-(5-methoxypyridin-2-yl)piperidin-4-yl]urea], for which the EC50 turned out to be 1 nM. Next, `COc1ccc([C@@H]2CN(Cc3cncc(Cl)c3)CC[C@H]2NC(=O)Nc2ccc(Cl)cc2)nc1` (relative stereo) [Ex-69, trans-1-(4-chlorophenyl)-3-[1-[(5-chloropyridin-3-yl)methyl]-3-(5-methoxypyridin-2-yl)piperidin-4-yl]urea]: 0.07 nM; `COc1ccc([C@@H]2CN(c3ccc(F)cc3)CC[C@H]2NC(=O)Nc2ccc(Cl)cc2)cn1` (relative stereo) [Ex-2, trans-1-(4-chloro-phenyl)-3-[1-(4-fluoro-phenyl)-6'-methoxy-1,2,3,4,5,6-hexahydro-[3,3']bipyridinyl-4-yl]-urea]: 11 nM; `COc1ccc([C@@H]2CN(CC3(O)CC3)CC[C@H]2NC(=O)Nc2cc(C)ns2)nc1` (relative stereo) [Ex-182, trans-1-[1'-(1-hydroxy-cyclopropylmethyl)-5-methoxy-1',2',3',4',5',6'-hexahydro-[2,3']bipyridinyl-4'-yl]-3-(3-methyl-isothiazol-5-yl)-urea]: 2 nM. Consider `COc1ccc([C@@H]2CN(C(=O)CCN(C)C)CC[C@H]2NC(=O)Nc2ccc(Cl)cc2)nc1` (relative stereo) [Ex-95, trans-1-(4-chloro-phenyl)-3-[1'-(3-dimethylamino-propionyl)-5-methoxy-1',2',3',4',5',6'-hexahydro-[2,3']bipyridinyl-4'-yl]-urea], for which the EC50 is 12 nM. With `COc1ccc([C@@H]2CN(CC(F)F)CC[C@H]2NC(=O)Nc2ccc(C#N)cc2)nc1` (racemic) [Ex-113, trans-1-(4-cyanophenyl)-3-[1-(2,2-difluoroethyl)-3-(5-methoxy-2-pyridyl)-4-piperidyl]urea] the figure was 1.2 nM.
